Experiments:
C6 cells = assay: ROS measurement by DHR fluorescence (flow cytometry); format: cell-based, rat; settings: C6, 25 μg/ml, 24 h
Procedure: (§1) The cells grown in the 6-well plate were stained with 1 μM dihydrorhodamine 123 (DHR) 20 min before the treatment with the test compound. At the end of the cultivation period the cells were detached, washed and resuspended in PBS. Analysis of ROS release was performed with a FACSCalibur and analyzed using CellQuest Pro software (Kaludjerovic 2005).

diabetes = settings: NOD mice with spontaneous or accelerated diabetes, or multiple low dose streptozotocin diabetes; cited from earlier work
[1] = system: L929 mouse fibrosarcoma cells; assay: MTT / CV cell viability test; format: cell-based; settings: L929 cells, different concentrations, 24 h; cell number also reduced by CV
Procedure: (§2) Rat glioma cell line C6 was a kind gift from Dr. Pedro Tranque (Universidad de Castilla-La Mancha, Albacete, Spain), murine melanoma B16 cell line was a kind gift from Dr. Sinisa Radulovic (Institute for Oncology and Radiology of Serbia, Belgrade, Serbia) while mouse fibrosarcoma L929 was obtained from the European Collection of Animal Cell Cultures (Salisbury, UK). Cells were grown in HEPES-buffered RPM, 1640 medium supplemented with 5% FCS, 2 mM glutamine, 0.01% sodium pyruvate, 5×10^−5 M 2-mercaptoethanol and antibiotics (culture medium) at 37° C. in a humidified atmosphere with 5% CO2. After conventional trypsinization the cells were seeded at a concentration of 10^4 cells/well in a 96-well plate, of 2×10^5 cells/well in a 6-well plate or at 3×10^4 cells/well in a 4-well chamber slide, cultivated overnight, and then exposed to the test compound.
(§3) The cells were seeded in flat-bottom 96-well plates (10^4 cells/well) in a final volume of 200 μl of culture medium, incubated overnight, then treated with different concentrations of the test compound. After 24 h incubation, cell viability was assessed using 3-4,5-dimethylthiazol-2-yl)-2,5-diphenyltetrazolium bromide (MTT) test, based on the mitochondrial-dependent reduction of MTT to formazan, or by crystal violet (CV) staining of adherent cells, as previously described (Mijatovic et al CMLS 2004). The results are presented as % of control values obtained in untreated cultures. The rate of cell proliferation was also determined using flow cytometric analysis of cells labeled with CFSE (Kang 2005). The cells were detached, added with 1.5 μM CFSE and allowed to stand for 15 min at 37° C., then washed twice and seeded in 6-well plates at 2×10^5. The cells were treated with the compound for 24 and 48 h, trypsinized and washed twice. Finally, the cells were resuspended in PBS and analyzed by flow cytometry. Green fluorescence emission from cells illuminated with excitation light of 488 nm was measured with a FACS Calibur (BD, Heidelberg, Germany) and analyzed using the CellQuest software.

C6 rat astrocytoma cells = assay: MTT / CV cell viability test; format: cell-based; settings: C6 cells, different concentrations, 24 h; cell number also reduced by CV
Procedure: as §2, §3

B16 mouse melanoma cells = assay: MTT / CV cell viability test; format: cell-based; settings: B16 cells, different concentrations, 24 h; cell number also reduced by CV
Procedure: as §2, §3

B16 cells = assay: ROS measurement by DHR fluorescence (flow cytometry); format: cell-based, mouse; settings: B16, 25 μg/ml, 24 h
Procedure: as §1

L929 cells = assay: as above; format: cell-based, mouse; settings: L929, 25 μg/ml, 24 h
Procedure: as §1

O=C(O)CC1CC(c2ccccc2)=NO1 (racemic) [VGX-1027, (S,R)-3-phenyl-4,5-dihydro-5-isoxasole acetic acid, reference compound]
intracellular production of ROS (DHR fluorescence) (C6 cells): did not release ROS | diabetes progress (diabetes): significantly reduces diabetes progress | cell viability (MTT, mitochondrial respiration) [1]: did not affect the viability | cell viability (MTT, mitochondrial respiration) (C6 rat astrocytoma cells): did not affect the viability | cell viability (MTT, mitochondrial respiration) (B16 mouse melanoma cells): did not affect the viability | intracellular production of ROS (DHR fluorescence) (B16 cells): did not release ROS | intracellular production of ROS (DHR fluorescence) (L929 cells): did not release ROS
